This assay relates to human primary T-cells, IL-2 stimulated proliferation (JAK-1 and JAK-3 dependent; reported as JAK3 activity). Briefly: Human primary T-cell proliferation stimulated by IL-2 (Example 3). It counts as cell-based. To be noted: tested under conditions described in Example 3 (IL-2 stimulated human primary T-cell proliferation), read-out: ability to inhibit JAK3 activity, IC50 range (Table V). The essentials:
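Peripheral-blood human T-cells pre-activated via TCR/CD28, IL-2-starved overnight, then cultured 72 h at 37 °C with compound in Yssel's medium containing IL-2 (80 U/mL in cell suspension). Proliferation read as viable-cell ATP by CellTiter-Glo luminescence; reduction versus control taken as JAK pathway inhibition.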

Structures can show the parent of a compound that is named as a salt. Where two headings read alike, the source gives them in different places.

Consider `Cc1cnc(Nc2ccc(N(C)[C@@H]3CCCN(Cc4ccccc4)C3)nc2)nc1Nc1ccc2oc(=O)[nH]c2c1` [II-106, (R)-5-(2-(6-((1-benzylpiperidin-3-yl)(methyl)amino)pyridin-3-ylamino)-5-methylpyrimidin-4-ylamino)benzo[d]oxazol-2(3H)-one], for which the IC50 (Homo sapiens, T-cell) was below 500 nM.

`Cn1c(=O)oc2ccc(Nc3nc(Nc4ccc(S(N)(=O)=O)cc4)ncc3F)cc21` [Compound I-76, N2-((4-aminosulfonyl)phenyl)-N4-(3-methyl-2-oxo-2,3-dihydrobenzo[d]oxazol-5-yl)-5-fluoropyrimidine-2,4-diamine]: the IC50 lay within 500 to 5000 nM. As for `Cc1ccc(Nc2ncc(C)c(Nc3ccc4oc(=O)[nH]c4c3)n2)cc1` [Compound I-421, 5-(2-(p-toluidino)-5-methylpyrimidin-4-ylamino)benzo[d]oxazol-2(3H)-one], the IC50 (Homo sapiens, T-cell) is below 500 nM. As for `Cc1cnc(Nc2ccnc(N3CCN(C)CC3)c2)nc1Nc1ccc2oc(=O)[nH]c2c1` [IV-8, N4-(benzo[d]oxazol-2(3H)-on-5-yl)-N2-[2-(4-methylpiperazino)pyridin-4-yl]-5-methylpyrimidine-2,4-diamine], where the note is “Homo sapiens, T-cell”, the half-inhibitory concentration (IC50) was above 10000 nM. With `O=c1[nH]c2cc(Nc3nc(Nc4cccc(S(=O)(=O)N5CCOCC5)c4)ncc3F)ccc2o1` [Compound I-31, N4-(benzo[d]oxazol-2(3H)-on-5-yl)-N2-(3-(morpholinosulfonyl)phenyl)-5-fluoropyrimidine-2,4-diamine], the IC50 (Homo sapiens, T-cell) is below 500 nM. `CS(=O)(=O)c1ccc(Nc2ncc(F)c(Nc3ccc4oc(=O)[nH]c4c3)n2)cc1` [Compound I-21]: the IC50 is below 500 nM.

Consider `Cc1cnc(Nc2ccc(N3CCN(C)CC3)nn2)nc1Nc1ccc2oc(=O)[nH]c2c1` [IV-3, N4-(benzo[d]oxazol-2(3H)-on-5-yl)-N2-(6-(4-methylpiperazin-1-yl)pyridazin-3-yl)-5-methylpyrimidine-2,4-diamine], for which the half-inhibitory concentration (IC50) (Homo sapiens, T-cell) was above 10000 nM. Consider `Cc1cnc(Nc2cccc(OCC(N)=O)c2)nc1Nc1ccc2oc(=O)[nH]c2c1` [Compound I-319, N2-[3-(aminocarbonylmethoxy)]phenyl-5-methyl-N4-(2-oxo-2,3-dihydro-1,3-benzoxazol-5-yl)-2,4-pyrimidinediamine], for which the half-inhibitory concentration (IC50) is below 500 nM. With `O=c1[nH]c2cc(Nc3nc(Nc4ccc(OC(F)(F)F)cc4)ncc3F)ccc2o1` [Compound I-109, N4-(benzoxazolin-2-on-5-yl)-N2-(4-trifluoromethoxyphenyl)-5-fluoropyrimidine-2,4-diamine trifluoroacetate salt], the concentration for half-maximal inhibition (IC50) (Homo sapiens, T-cell) was below 500 nM. Consider `Cc1cnc(Nc2cccc(S(N)(=O)=O)c2)nc1Nc1ccc2oc(=O)[nH]c2c1` [Compound I-14], for which the IC50 was below 500 nM.

Turning to `CCN(CC)C(C)c1cccc(Nc2ncc(C)c(Nc3ccc4oc(=O)[nH]c4c3)n2)c1` (centres unmarked) [Compound I-216, 5-(2-(3-(1-(diethylamino)ethyl)phenylamino)-5-methylpyrimidin-4-ylamino)benzo[d]oxazol-2(3H)-one], the half-inhibitory concentration (IC50) (Homo sapiens, T-cell) is below 500 nM. On the same count and under the same terms, the figure for `CCNC(=O)c1ccc(Nc2ncc(C)c(Nc3ccc4oc(=O)[nH]c4c3)n2)cc1` [Compound I-137, N-Ethyl-4-[5-methyl-4-(2-oxo-2,3-dihydro-benzooxazol-5-ylamino)-pyrimidin-2-ylamino]-benzamide] is below 500 nM. As for `COC(=O)c1ccc(Nc2ncc(C)c(Nc3ccc4oc(=O)[nH]c4c3)n2)cc1OC` [Compound I-336, N2-(3-methoxy-4-methoxycarbonyl)phenyl-5-methyl-N4-(2-oxo-2,3-dihydro-1,3-benzoxazol-5-yl)-2,4-pyrimidinediamine], the half-maximal inhibitory concentration (IC50) is below 500 nM. In the case of `Cc1cnc(Nc2ccc(NC3CC4CCC(C3)N4C)nc2)nc1Nc1ccc2oc(=O)[nH]c2c1` (centres unmarked) [II-37, N4-(benzo[d]oxazol-2(3H)-on-5-yl)-N2-[2-(8-methyl-8-aza-bicyclo[3.2.1]oct-3-yl)aminopyridin-5-yl]-5-methylpyrimidine-2,4-diamine], the half-maximal inhibitory concentration (IC50) (Homo sapiens, T-cell) was 500 to 5000 nM. Regarding `Cc1cnc(Nc2cc(C(N)=O)cc(C(F)(F)F)c2)nc1Nc1ccc2oc(=O)[nH]c2c1` [Compound I-370, N2-(3-carboxamide-5-trifluoromethyl)phenyl-5-methyl-N4-(2-oxo-2,3-dihydro-1,3-benzoxazol-5-yl)-2,4-pyrimidinediamine], the IC50 is below 500 nM. Regarding `COc1ccc(Nc2ncc(C)c(Nc3ccc4oc(=O)[nH]c4c3)n2)cc1C(F)F` [Compound I-271, 5-(2-(3-(difluoromethyl)-4-methoxyphenylamino)-5-methylpyrimidin-4-ylamino)benzo[d]oxazol-2(3H)-one], the IC50 (Homo sapiens, T-cell) was below 500 nM. As to `Cc1cnc(Nc2ccc(OC(C)C)nc2)nc1Nc1ccc2oc(=O)[nH]c2c1` [II-144, N2-(2-isopropoxypyridin-5-yl)-5-methyl-N4-(2-oxo-2,3-dihydro-1,3-benzoxazol-5-yl)-2,4-pyrimidinediamine], the IC50 (Homo sapiens, T-cell) is below 500 nM.

With `Cc1cnc(Nc2ccc(C(=O)N(C)C)cc2)nc1Nc1ccc2oc(=O)[nH]c2c1` [Compound I-132, N,N-Dimethyl-4-[5-methyl-4-(2-oxo-2,3-dihydro-benzooxazol-5-ylamino)-pyrimidin-2-ylamino]-benzamide], the IC50 (Homo sapiens, T-cell) was below 500 nM.

As to `Cc1cnc(Nc2ccc(S(N)(=O)=O)cc2)nc1Nc1ccc2[nH]c(=O)[nH]c2c1` [Compound I-12, N4-(benzimidazolin-2-on-5-yl)-N2-((4-aminosulfonyl)phenyl)-5-methylpyrimidine-2,4-diamine], the 50% inhibitory concentration (IC50) was above 10000 nM.

In the case of `Cc1cnc(Nc2ccc(NS(C)(=O)=O)cc2)nc1Nc1ccc2c(c1)n(C)c(=O)n2C` [Compound I-38, N4-(1,3-dimethylbenzimidazolin-2-on-5-yl)-N2-((4-methylsulfonylamino)phenyl)-5-methylpyrimidine-2,4-diamine], the IC50 was below 500 nM. For `CCCN1Cc2ccc(Nc3ncc(C)c(Nc4ccc5oc(=O)[nH]c5c4)n3)cc2C1` [III-6, N4-(benzo[d]oxazol-2(3H)-on-5-yl)-N2-(2-n-propylisoindolin-5-yl)-5-methylpyrimidine-2,4-diamine], the IC50 (Homo sapiens, T-cell) was below 500 nM. Consider `CCNC(C)c1cc(Nc2ncc(C)c(Nc3ccc4oc(=O)[nH]c4c3)n2)cc(C(F)(F)F)c1` (centres unmarked) [Compound I-462, 5-(2-(3-(1-(ethylamino)ethyl)-5-(trifluoromethyl)phenylamino)-5-methylpyrimidin-4-ylamino)benzo[d]oxazol-2(3H)-one], for which, under “Homo sapiens, T-cell”, the IC50 is below 500 nM.

Regarding `Cc1cc(Nc2ncc(C)c(Nc3ccc4oc(=O)[nH]c4c3)n2)ccc1N1CC2(C)CN(C)CC(C)(C1)C2` [Compound I-5, N4-(benzo[d]oxazol-2(3H)-on-5-yl)-N2-(3-methyl-4-(1,5,7-trimethyl-3,7-diazabicyclo[3.3.1]nonan-3-yl)phenyl)-5-methylpyrimidine-2,4-diamine], for the setting “Homo sapiens, T-cell”, the IC50 lay in the range of 500 to 5000 nM. `COc1cc(Nc2ncc(C)c(Nc3ccc4oc(=O)[nH]c4c3)n2)ccc1C(=O)N1CCN(C)CC1` [Compound I-270, 5-(2-(3-methoxy-4-(4-methylpiperazine-1-carbonyl)phenylamino)-5-methylpyrimidin-4-ylamino)benzo[d]oxazol-2(3H)-one]: under “Homo sapiens, T-cell”, the IC50 is below 500 nM. On to `Cc1cnc(Nc2ccc(C(N)=O)c(N3CCC(C)CC3)c2)nc1Nc1ccc2oc(=O)[nH]c2c1` [Compound I-156, 4-[5-Methyl-4-(2-oxo-2,3-dihydro-benzooxazol-5-ylamino)-pyrimidin-2-ylamino]-2-(4-methyl-piperidin-1-yl)-benzamide], for which, for the setting “Homo sapiens, T-cell”, the 50% inhibitory concentration (IC50) is below 500 nM. On to `Cc1cnc(Nc2ccc(N(C)[C@H]3CCCN(Cc4ccccc4)C3)nc2)nc1Nc1ccc2oc(=O)[nH]c2c1` [II-100, (S)-5-(2-(6-((1-benzylpiperidin-3-yl)(methyl)amino)pyridin-3-ylamino)-5-methylpyrimidin-4-ylamino)benzo[d]oxazol-2(3H)-one], for which the half-inhibitory concentration (IC50) was below 500 nM. `Cc1cnc(Nc2cccc(C(O)C(F)(F)F)c2)nc1Nc1ccc2oc(=O)[nH]c2c1` (centres unmarked) [Compound I-304, N2-[3-(1-hydroxy-2,2,2-trifluoroethyl)]phenyl-5-methyl-N4-(2-oxo-2,3-dihydro-1,3-benzoxazol-5-yl)-2,4-pyrimidinediamine]: the 50% inhibitory concentration (IC50) is below 500 nM. For the molecule `Cc1cnc(Nc2ccc(N(C)[C@H]3CCCN(Cc4ccccc4)C3)nc2)nc1Nc1ccc2oc(=O)[nH]c2c1` [II-95, (S)-5-(2-(6-((1-benzylpiperidin-3-yl)(methyl)amino)pyridin-3-ylamino)-5-methylpyrimidin-4-ylamino)benzo[d]oxazol-2(3H)-one], the IC50 (Homo sapiens, T-cell) was below 500 nM. With `Cc1cnc(Nc2cccc(C#N)c2)nc1Nc1ccc2oc(=O)[nH]c2c1` [Compound I-26, N4-(benzo[d]oxazol-2(3H)-on-5-yl)-N2-(3-cyanophenyl)-5-methylpyrimidine-2,4-diamine], where the note is “Homo sapiens, T-cell”, the IC50 was below 500 nM. Take `COc1c(C(C)C)cc(Nc2ncc(C)c(Nc3ccc4oc(=O)[nH]c4c3)n2)cc1C(C)C` [Compound I-371, N2-(3,5-diisopropyl-4-methoxy)phenyl-5-methyl-N4-(2-oxo-2,3-dihydro-1,3-benzoxazol-5-yl)-2,4-pyrimidinediamine]: the IC50 fell in the range of 500 to 5000 nM. For the molecule `CCNC(=O)NC1CCN(c2ccc(Nc3ncc(C)c(Nc4ccc5oc(=O)[nH]c5c4)n3)cn2)C1` (centres unmarked) [II-96, 1-ethyl-3-(1-(5-(5-methyl-4-(2-oxo-2,3-dihydrobenzo[d]oxazol-5-ylamino)pyrimidin-2-ylamino)pyridin-2-yl)pyrrolidin-3-yl)urea], the half-inhibitory concentration (IC50) (Homo sapiens, T-cell) was below 500 nM. The same measure, in the same setting: the figure for `Cc1cnc(Nc2ccc(O)cc2)nc1Nc1ccc2oc(=O)[nH]c2c1` [Compound I-425, 5-[2-(4-Hydroxy-phenylamino)-5-methyl-pyrimidin-4-ylamino]-3H-benzooxazol-2-one] is below 500 nM.
